According to US20110294892A1, “Use of histone deacetylase inhibitors for the care of Philadephia-negative myeloproliferative syndromes” (priority 2008, published 2011):
Like-named read-outs stand apart in the source and are kept apart here. Values belong to the molecule of their own block, whether it stands above or below them.

Legend:
[1] = system: lipopolysaccharide (LPS)-stimulated cultured human peripheral blood mononuclear cells (PBMCs); details: cited from earlier work
[2] = system: patients with JAK2^V617F mutation suffering from myeloproliferative syndromes (PV, ET, IM); test: Phase II open clinical study in JAK2V617F-positive Philadelphia-negative myeloproliferative syndromes; format: in vivo, human; details: 50 mg twice per day
From the text: Clinical study of ITF2357 in patients suffering from Philadelphia-negative myeloproliferative syndromes. Design: phase II, open, non-randomized study.
Population in the study: 27 patients with the JAK2^V617F mutation suffering from myeloproliferative syndromes not adequately controlled by the standard pharmacological treatment (hydroxyurea).
Duration of the treatment: up to a maximum of 24 weeks of continual administration.
Secondary objective: to evaluate the effect of the treatment on the mutated JAK2 allele burden by quantitative PCR.

[3] = system: stem cells obtained from patients suffering from PV or ET; details: cited from earlier work
[4] = system: LPS-induced serum TNFα and IFNγ; details: mice, oral administration of 1.0 to 10 mg/kg; cited from earlier work
[5] = system: JAK2^V617F mutated human cell line SET-2; test: Cloning efficiency of the human cell line SET-2 in methyl-cellulose; format: cell-based; details: SET-2, 336 h; for EC50: read-out: EC50 (concentration required to reduce of 50% the number of clones)
From the text: For each experimental point 2 Petri dishes were done.

rhHDAC1 = rhHDAC1 (Homo sapiens, UniProt Q13547); test: biochemical
Sequence of rhHDAC1 (Q13547 whole entry): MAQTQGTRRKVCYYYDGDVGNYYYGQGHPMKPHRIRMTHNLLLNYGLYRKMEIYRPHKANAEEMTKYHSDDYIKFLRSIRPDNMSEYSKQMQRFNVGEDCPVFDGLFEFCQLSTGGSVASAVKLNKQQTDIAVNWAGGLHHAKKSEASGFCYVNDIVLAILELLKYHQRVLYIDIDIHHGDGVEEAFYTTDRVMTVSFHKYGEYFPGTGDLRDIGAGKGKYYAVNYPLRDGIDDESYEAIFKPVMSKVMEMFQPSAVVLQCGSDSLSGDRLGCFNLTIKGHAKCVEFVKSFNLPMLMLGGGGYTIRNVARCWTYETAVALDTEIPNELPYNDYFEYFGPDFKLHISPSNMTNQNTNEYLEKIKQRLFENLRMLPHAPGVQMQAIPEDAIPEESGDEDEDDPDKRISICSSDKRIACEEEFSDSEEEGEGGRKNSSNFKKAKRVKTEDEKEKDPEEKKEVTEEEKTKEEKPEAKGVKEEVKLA
Experimental: Values for rhHDAC1 inhibition are also reported: the enzyme was obtained from BPS Biosciences (cat n. 50001) and the test was carried out using a BIOMOL kit, according to supplier instructions.

EC50 [5]: 0.028 to 0.054 µM
SMILES: CCN(CC)Cc1ccc2cc(COC(=O)Nc3ccc(C(=O)NO)cc3)ccc2c1 [ITF2357, Diethyl-[6-(4-hydroxycarbamoyl-phenylcarbamoyloxymethyl)-naphthalen-2-ylmethyl]-ammonium chloride]
IC50 ([1]; read-out: concentration reducing by 50% the production of interferon-γ (IFNγ)): 0.025 µM | IC50 ([1]; read-out: concentration reducing by 50% the release of intracellular interleukin (IL)-1α): 0.012 µM | volume of the spleen ([2]; 4 to 12 weeks, patients who initially exhibited splenomegaly): significant reduction | complete or partial response, share of cases ([2]; preliminary data, treatment 4 to 12 weeks, PV, ET or myelofibrosis patients): approximately 60% | concentrations inhibiting the clonogenic activity of stem cells [3]: sub-micromolar | reduction of LPS-induced serum IFNγ [4]: more than 50% | reduction of LPS-induced serum TNFα [4]: more than 50%

SMILES: CC(=O)SCC(=O)c1ccc(NS(=O)(=O)c2ccc(OCCCN(C)C)cc2)nc1 [KD-5170]
IC50 (rhHDAC1): 0.024 µM | inhibition at 1 µM ([5]; read-out: inhibition of clones formation at 1 μM): < 20%

EC50 [5]: 1.82 µM
SMILES: Nc1ccccc1NC(=O)c1ccc(CNC(=O)OCc2cccnc2)cc1 [SNDX-275]

EC50 [5]: 1.2 µM
SMILES: Nc1ccccc1NC(=O)c1ccc(CNc2nccc(-c3cccnc3)n2)cc1 [MGCD-0103]
